What was measured:
Set-up in all cases: key: 0: no intensity; 1: low intensity; 2: medium intensity; 3: high intensity
[1] = tested on: Penicillin binding protein purified from Bacillus stearothermophilus; assay: Detection of Penicillin G in different dairy matrices (Example 24)
Experimental: (§1) A nitrocellulose HF90 membrane (Millipore; length 25 mm) was used as a detection region. The membrane was glued to a polystyrene laminated card (thickness 0.254 mm) 8 mm from the proximal end of the card. Next, the detection zone and control zone were applied onto the nitrocellulose membrane. The detection zone was applied by dispensing 1 mg/ml of a 7ACA-spacer-BSA conjugate in 20 mM KPO4-buffer (pH 7.5) with a Biodot Dispense workstation XYZ 3050 with frontline at 0.2 μl/cm. The control zone was applied by dispensing 0.15 mg/ml of an anti-IgY antibody in 20 mM KPO4-buffer (pH 7.5) comprising 0.675 mg/ml BSA, 5% w/v saccharose and 20 mM NaCl with a Biodot Dispense workstation XYZ 3050 with frontline at 0.8 μl/cm. After drying of the zones, the nitrocellulose membrane was blocked by spraying a solution comprising 10 mM Tris buffer (pH 8) comprising 2% w/v BSA and 0.05% w/v Tween-20 using a Biodot Dispense workstation XYZ 3050 with airjet 3×. The solution was sprayed onto the membrane at a distance of 2 mm below the detection zone. Thereafter, the sample receiving region (VF2 membrane from Millipore; length 1 cm) was glued at the proximal end of the card overlapping 2 mm with the nitrocellulose membrane. The absorbing region (10038 membrane from Millipore; length 20 mm) was glued at the distal end of the card with an overlap of 2 mm on the nitrocellulose membrane. The obtained cards were dried at 37° C. in a dry atmosphere (0% relative humidity). The card was cut in strips of 5.2 mm width and kept at a dry atmosphere (0% relative humidity).
(§2) Streptavidin-coated gold particles were synthesized by reacting colloidal gold (diameter 40 nm; 1 OD/ml) with 10 μg/ml streptavidin. Next, the obtained solution was concentrated by tangential flow filtration, washed and stored in a Tris buffer (pH 8) including NaCN. Penicillin binding protein purified from Bacillus stearothermophilus was biotinylated (1:4) with D-biotinyl-epsilon-aminocaproic acid-N-hydroxysuccinimide ester. Next, the penicillin binding protein-gold conjugate was synthesized by reacting 1.5 μg biotinylated penicillin binding protein with 1 OD streptavidin-coated gold particles for 1 hour, followed by centrifugation at 10,000×g for 5 minutes and resuspension of the obtained pellet in 45 mM bicarbonate buffer comprising 0.1% w/v Triton X-100 (pH 9.6).
(§3) Thereafter, 140-200 mOD of the penicillin binding protein-gold conjugate and 5-20 mOD of the IgY-gold conjugate was solubilized in 100 μl buffer (80 mM Tris buffer comprising 0.01% w/v Triton-X-100, 0.4% w/v BSA, 5% v/v glycerin and 2% w/v saccharose (pH 8.5)) and 0.75 μl of the solution was dispensed per tube and dried for 12 hours at 40° C. The obtained tubes were sealed.
(§4) 150 μl of spiked milk was added per tube containing the dried conjugates. The concentration of penicillin G in the added milk varied from 0 to 4 ng/g (tube 1: 0 ng/g; […]; tube 2: 2 ng/g; tube 3: 3 ng/g; and tube 4: 4 ng/g). The obtained liquid composition was incubated for 2 minutes at 64° C. in an incubator. A test device was put into the tube and incubated for 3 minutes at 64° C. in the incubator. The result was read by eye.
The test was done essentially as described in Example 3. Instead of raw milk, different dairy matrices were tested. All liquid matrices were measured as such and all powders were first dispersed in water. For milk powder 20 g was dispersed in 250 g distilled water and for whey powder 7.1 g was dispersed in 100 g distilled water.

[2] = tested on: Penicillin binding protein purified from Bacillus stearothermophilus; assay: Detection of Penicillin G, test done at different temperatures (Example 29)
Experimental: as §1, §2, §3, §4
The test was done essentially as described in Example 3, with the proviso that the test was done at different temperatures (4° C., 20° C. or 31.5° C.).

[3] = tested on: Penicillin binding protein purified from Bacillus stearothermophilus; assay: Detection of Penicillin G with milk having a different initial temperature (Example 30)
Experimental: as §1, §2, §3, §4
The test was done essentially as described in Example 3, with the proviso that the test was done with milk having an initial different temperature (0° C., 4° C., 20° C. or 45° C.). The milk was allowed to reach room temperature shortly before the test was done.

[4] = tested on: Penicillin binding protein purified from Bacillus stearothermophilus; assay: Detection of Penicillin G after different shaking steps (Example 28)
Experimental: as §1, §2, §3, §4
The test was done essentially as described in Example 3, with the proviso that different shaking steps were applied. […]

With `CC1(C)S[C@@H]2[C@H](NC(=O)Cc3ccccc3)C(=O)N2[C@H]1C(=O)O` [Penicillin G] the “Intensity of detection zone” value ([1]; Pen G 3 ppb, Cocoa) was 2, the “Intensity of detection zone” value ([1]; Pen G 3 ppb, Cream 10%) was 2 and the “Intensity of detection zone” value ([1]; Pen G 3 ppb, Cream 40%) was 2. For the same compound, the “Intensity of detection zone” value ([1]; Pen G 3 ppb, Frozen raw buffalo milk (0 ppb gave 1)) was 1, the “Intensity of detection zone” value ([1]; Pen G 3 ppb, Frozen raw goat milk (0 ppb gave 1)) was 1 and the “Intensity of detection zone” value ([1]; Pen G 3 ppb, Frozen raw milk) was 2. The “Intensity of detection zone” value ([1]; Pen G 3 ppb, Frozen raw sheep milk (0 ppb gave 1)) was 1, the “Intensity of detection zone” value ([1]; Pen G 3 ppb, Low fat UHT milk) was 2 and the “Intensity of detection zone” value ([1]; Pen G 3 ppb, Low fat processed milk) was 2. For the same compound, the “Intensity of detection zone” value ([1]; Pen G 3 ppb, Milk powder (20 g dispersed in 250 g distilled water)) was 2, the “Intensity of detection zone” value ([1]; Pen G 3 ppb, Pasteurized milk) was 2 and the “Intensity of detection zone” value ([1]; Pen G 3 ppb, UHT milk) was 2. For the same compound, the “Intensity of detection zone” value ([1]; Pen G 3 ppb, Whey pH 4.5 (0 ppb and control zone gave 0)) was 0, the “Intensity of detection zone” value ([1]; Pen G 3 ppb, Whey powder (7.1 g dispersed in 100 g distilled water)) was 2 and the “Intensity of detection zone” value ([1]; Pen G 4 ppb, Cocoa) was 1. The “Intensity of detection zone” value ([1]; Pen G 4 ppb, Cream 10%) was 1, the “Intensity of detection zone” value ([1]; Pen G 4 ppb, Cream 40%) was 2 and the “Intensity of detection zone” value ([1]; Pen G 4 ppb, Frozen raw buffalo milk (0 ppb gave 1)) was 0. The “Intensity of detection zone” value ([1]; Pen G 4 ppb, Frozen raw goat milk (0 ppb gave 1)) was 0, the “Intensity of detection zone” value ([1]; Pen G 4 ppb, Frozen raw milk) was 1 and the “Intensity of detection zone” value ([1]; Pen G 4 ppb, Frozen raw sheep milk (0 ppb gave 1)) was 0. For the same compound, the “Intensity of detection zone” value ([1]; Pen G 4 ppb, Low fat UHT milk) was 1, the “Intensity of detection zone” value ([1]; Pen G 4 ppb, Low fat processed milk) was 1 and the “Intensity of detection zone” value ([1]; Pen G 4 ppb, Milk powder (20 g dispersed in 250 g distilled water)) was 1. For the same compound, the “Intensity of detection zone” value ([1]; Pen G 4 ppb, Pasteurized milk) was 1, the “Intensity of detection zone” value ([1]; Pen G 4 ppb, UHT milk) was 1 and the “Intensity of detection zone” value ([1]; Pen G 4 ppb, Whey pH 4.5 (0 ppb and control zone gave 0)) was 0. For the same compound, the “Intensity of detection zone” value ([1]; Pen G 4 ppb, Whey powder (7.1 g dispersed in 100 g distilled water)) was 1, the “Intensity of detection zone” value ([2]; Pen G 3 ppb, test done at temperature 4 ° C.) was 2 and the “Intensity of detection zone” value ([2]; Pen G 3 ppb, test done at temperature 20 ° C.) was 2. The “Intensity of detection zone” value ([2]; Pen G 3 ppb, test done at temperature 31.5 ° C.) was 2, the “Intensity of detection zone” value ([2]; Pen G 4 ppb, test done at temperature 4 ° C.) was 1 and the “Intensity of detection zone” value ([2]; Pen G 4 ppb, test done at temperature 20 ° C.) was 1. For the same compound, the “Intensity of detection zone” value ([2]; Pen G 4 ppb, test done at temperature 31.5 ° C.) was 1, the “Intensity of detection zone” value ([3]; Pen G 3 ppb, initial milk temperature 0 ° C.) was 2 and the “Intensity of detection zone” value ([3]; Pen G 3 ppb, initial milk temperature 4 ° C.) was 2. For the same compound, the “Intensity of detection zone” value ([3]; Pen G 3 ppb, initial milk temperature 20 ° C.) was 2, the “Intensity of detection zone” value ([3]; Pen G 3 ppb, initial milk temperature 45 ° C.) was 2 and the “Intensity of detection zone” value ([3]; Pen G 4 ppb, initial milk temperature 0 ° C.) was 1. For the same compound, the “Intensity of detection zone” value ([3]; Pen G 4 ppb, initial milk temperature 4 ° C.) was 1, the “Intensity of detection zone” value ([3]; Pen G 4 ppb, initial milk temperature 20 ° C.) was 1 and the “Intensity of detection zone” value ([3]; Pen G 4 ppb, initial milk temperature 45 ° C.) was 1. The “Intensity of detection zone” value ([4]; Pen G 3 ppb, Method a, no shaking steps (0 ppb gave 2, control zone 1)) was 1, the “Intensity of detection zone” value ([4]; Pen G 3 ppb, Method b, one shaking step (10 seconds) after incubation) was 2 and the “Intensity of detection zone” value ([4]; Pen G 3 ppb, Method c, one shaking step (10 seconds) before incubation) was 2. The “Intensity of detection zone” value ([4]; Pen G 3 ppb, Method d, shaking 5 seconds before and 10 seconds after incubation) was 2, the “Intensity of detection zone” value ([4]; Pen G 3 ppb, Method e, shaking 10 seconds before and 10 seconds after incubation) was 2 and the “Intensity of detection zone” value ([4]; Pen G 4 ppb, Method a, no shaking steps (0 ppb gave 2, control zone 1)) was 1. The “Intensity of detection zone” value ([4]; Pen G 4 ppb, Method b, one shaking step (10 seconds) after incubation) was 1, the “Intensity of detection zone” value ([4]; Pen G 4 ppb, Method c, one shaking step (10 seconds) before incubation) was 1 and the “Intensity of detection zone” value ([4]; Pen G 4 ppb, Method d, shaking 5 seconds before and 10 seconds after incubation) was 1. The “Intensity of detection zone” value ([4]; Pen G 4 ppb, Method e, shaking 10 seconds before and 10 seconds after incubation) was 1.

Source: US9182397B2, “Immunoassay for detecting antibiotics” (DSM IP ASSETS B.V., priority 2011, dated 2015)
